From paper PMC5564600 (Oncotarget, 2017) come the findings set out here.

Holding throughout (test): biochemical
Holding throughout (type): binding

In assay [1] the target is T1, panel of 442 kinases (Homo sapiens, UniProt O15530).
T1 construct: purchased Ambit Biosciences (scanMAXX KINOMEscan)
T1 sequence (O15530 1-556): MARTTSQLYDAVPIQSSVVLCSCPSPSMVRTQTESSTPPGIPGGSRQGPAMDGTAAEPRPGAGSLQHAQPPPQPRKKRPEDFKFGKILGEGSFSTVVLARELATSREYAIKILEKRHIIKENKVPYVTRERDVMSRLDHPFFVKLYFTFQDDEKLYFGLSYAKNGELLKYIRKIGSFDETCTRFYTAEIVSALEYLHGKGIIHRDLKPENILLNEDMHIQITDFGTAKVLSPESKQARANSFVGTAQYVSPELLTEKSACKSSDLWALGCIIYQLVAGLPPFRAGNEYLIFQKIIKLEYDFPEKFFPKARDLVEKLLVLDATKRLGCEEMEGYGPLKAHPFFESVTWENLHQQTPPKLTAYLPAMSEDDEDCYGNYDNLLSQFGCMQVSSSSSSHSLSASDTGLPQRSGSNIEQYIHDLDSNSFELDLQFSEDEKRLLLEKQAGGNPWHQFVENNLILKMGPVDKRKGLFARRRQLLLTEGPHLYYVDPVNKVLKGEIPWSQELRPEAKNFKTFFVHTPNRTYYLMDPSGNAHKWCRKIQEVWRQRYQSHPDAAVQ
As to conditions: kinase PDPK1; for remaining activity at 1 µM: read-out: % of control at 1 µM.

Assay [2] deals with T2, panel of 442 kinases (Homo sapiens, UniProt O75716).
T2 construct: purchased Ambit Biosciences (scanMAXX KINOMEscan)
The settings on record: kinase STK16; for remaining activity at 1 µM: read-out: STK16 (% of control at 1 µM).

Assay [3] has as its target T3, panel of 442 kinases (Homo sapiens, UniProt P0C264).
T3 construct: purchased Ambit Biosciences (scanMAXX KINOMEscan)
T3 sequence (P0C264 1-359): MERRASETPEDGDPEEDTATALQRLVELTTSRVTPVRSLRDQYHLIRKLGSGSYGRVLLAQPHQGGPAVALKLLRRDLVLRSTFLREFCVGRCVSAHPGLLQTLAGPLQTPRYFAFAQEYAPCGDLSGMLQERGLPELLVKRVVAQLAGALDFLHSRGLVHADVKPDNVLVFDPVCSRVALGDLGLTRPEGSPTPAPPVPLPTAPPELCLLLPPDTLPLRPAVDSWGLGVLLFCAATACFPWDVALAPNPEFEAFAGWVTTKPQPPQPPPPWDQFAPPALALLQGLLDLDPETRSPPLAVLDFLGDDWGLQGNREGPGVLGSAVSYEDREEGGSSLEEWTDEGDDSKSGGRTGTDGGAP
The settings on record: kinase SgK110; for remaining activity at 1 µM: read-out: SgK110 (% of control at 1 µM).

In assay [4] the target is T4, panel of 442 kinases (Homo sapiens, UniProt P32298).
T4 construct: purchased Ambit Biosciences (scanMAXX KINOMEscan)
The settings on record: kinase GRK4; for remaining activity at 1 µM: read-out: % of control at 1 µM.

Assay [5] deals with T5, panel of 442 kinases (Homo sapiens, UniProt Q86YV6).
T5 construct: purchased Ambit Biosciences (scanMAXX KINOMEscan)
T5 sequence (Q86YV6 1-388): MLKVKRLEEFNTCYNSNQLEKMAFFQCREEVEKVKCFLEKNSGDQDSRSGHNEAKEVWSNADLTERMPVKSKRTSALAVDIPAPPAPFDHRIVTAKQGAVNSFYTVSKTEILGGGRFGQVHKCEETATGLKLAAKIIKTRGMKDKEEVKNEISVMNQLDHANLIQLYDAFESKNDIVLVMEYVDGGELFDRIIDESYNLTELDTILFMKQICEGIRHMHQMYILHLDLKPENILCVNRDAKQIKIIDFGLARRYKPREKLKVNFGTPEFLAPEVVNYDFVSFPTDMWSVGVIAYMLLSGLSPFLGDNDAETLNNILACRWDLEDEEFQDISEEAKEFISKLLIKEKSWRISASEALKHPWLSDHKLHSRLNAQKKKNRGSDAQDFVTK
The settings on record: kinase MYLK4; for remaining activity at 1 µM: read-out: % of control at 1 µM.

Assay [6] deals with T6, panel of 442 kinases (Homo sapiens, UniProt Q9UEE5).
T6 construct: purchased Ambit Biosciences (scanMAXX KINOMEscan)
T6 sequence (Q9UEE5 1-414): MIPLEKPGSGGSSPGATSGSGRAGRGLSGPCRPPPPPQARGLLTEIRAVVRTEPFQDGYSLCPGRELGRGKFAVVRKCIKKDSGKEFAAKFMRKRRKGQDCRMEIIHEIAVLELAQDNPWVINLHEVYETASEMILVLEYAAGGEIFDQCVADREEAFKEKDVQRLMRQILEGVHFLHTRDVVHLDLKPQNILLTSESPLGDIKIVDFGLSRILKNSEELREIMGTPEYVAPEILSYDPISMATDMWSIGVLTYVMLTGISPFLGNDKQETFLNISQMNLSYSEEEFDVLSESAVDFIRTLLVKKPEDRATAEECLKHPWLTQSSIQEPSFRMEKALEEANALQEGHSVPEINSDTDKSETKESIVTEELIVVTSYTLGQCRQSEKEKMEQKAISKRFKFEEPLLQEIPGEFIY
The settings on record: DRAK1; for remaining activity at 1 µM: read-out: % of control at 1 µM.

Assay [7] has as its target T7, panel of 442 kinases (Homo sapiens, UniProt Q9UM73).
T7 construct: purchased Ambit Biosciences (scanMAXX KINOMEscan)
The settings on record: ALK; for remaining activity at 1 µM: read-out: % of control at 1 µM.

Setting [8] is: 10 µM, read-out: % of control at 10 µM.

T2 sequence (O75716 whole entry): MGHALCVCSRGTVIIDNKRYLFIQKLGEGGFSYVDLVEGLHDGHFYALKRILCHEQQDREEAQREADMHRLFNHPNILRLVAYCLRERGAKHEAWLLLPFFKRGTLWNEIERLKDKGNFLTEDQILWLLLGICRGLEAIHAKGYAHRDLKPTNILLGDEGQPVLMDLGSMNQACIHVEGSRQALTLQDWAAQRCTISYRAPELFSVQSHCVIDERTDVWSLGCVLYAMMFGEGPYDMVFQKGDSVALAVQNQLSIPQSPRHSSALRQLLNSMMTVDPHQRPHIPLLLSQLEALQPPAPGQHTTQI
T7 sequence (Q9UM73 19-1620): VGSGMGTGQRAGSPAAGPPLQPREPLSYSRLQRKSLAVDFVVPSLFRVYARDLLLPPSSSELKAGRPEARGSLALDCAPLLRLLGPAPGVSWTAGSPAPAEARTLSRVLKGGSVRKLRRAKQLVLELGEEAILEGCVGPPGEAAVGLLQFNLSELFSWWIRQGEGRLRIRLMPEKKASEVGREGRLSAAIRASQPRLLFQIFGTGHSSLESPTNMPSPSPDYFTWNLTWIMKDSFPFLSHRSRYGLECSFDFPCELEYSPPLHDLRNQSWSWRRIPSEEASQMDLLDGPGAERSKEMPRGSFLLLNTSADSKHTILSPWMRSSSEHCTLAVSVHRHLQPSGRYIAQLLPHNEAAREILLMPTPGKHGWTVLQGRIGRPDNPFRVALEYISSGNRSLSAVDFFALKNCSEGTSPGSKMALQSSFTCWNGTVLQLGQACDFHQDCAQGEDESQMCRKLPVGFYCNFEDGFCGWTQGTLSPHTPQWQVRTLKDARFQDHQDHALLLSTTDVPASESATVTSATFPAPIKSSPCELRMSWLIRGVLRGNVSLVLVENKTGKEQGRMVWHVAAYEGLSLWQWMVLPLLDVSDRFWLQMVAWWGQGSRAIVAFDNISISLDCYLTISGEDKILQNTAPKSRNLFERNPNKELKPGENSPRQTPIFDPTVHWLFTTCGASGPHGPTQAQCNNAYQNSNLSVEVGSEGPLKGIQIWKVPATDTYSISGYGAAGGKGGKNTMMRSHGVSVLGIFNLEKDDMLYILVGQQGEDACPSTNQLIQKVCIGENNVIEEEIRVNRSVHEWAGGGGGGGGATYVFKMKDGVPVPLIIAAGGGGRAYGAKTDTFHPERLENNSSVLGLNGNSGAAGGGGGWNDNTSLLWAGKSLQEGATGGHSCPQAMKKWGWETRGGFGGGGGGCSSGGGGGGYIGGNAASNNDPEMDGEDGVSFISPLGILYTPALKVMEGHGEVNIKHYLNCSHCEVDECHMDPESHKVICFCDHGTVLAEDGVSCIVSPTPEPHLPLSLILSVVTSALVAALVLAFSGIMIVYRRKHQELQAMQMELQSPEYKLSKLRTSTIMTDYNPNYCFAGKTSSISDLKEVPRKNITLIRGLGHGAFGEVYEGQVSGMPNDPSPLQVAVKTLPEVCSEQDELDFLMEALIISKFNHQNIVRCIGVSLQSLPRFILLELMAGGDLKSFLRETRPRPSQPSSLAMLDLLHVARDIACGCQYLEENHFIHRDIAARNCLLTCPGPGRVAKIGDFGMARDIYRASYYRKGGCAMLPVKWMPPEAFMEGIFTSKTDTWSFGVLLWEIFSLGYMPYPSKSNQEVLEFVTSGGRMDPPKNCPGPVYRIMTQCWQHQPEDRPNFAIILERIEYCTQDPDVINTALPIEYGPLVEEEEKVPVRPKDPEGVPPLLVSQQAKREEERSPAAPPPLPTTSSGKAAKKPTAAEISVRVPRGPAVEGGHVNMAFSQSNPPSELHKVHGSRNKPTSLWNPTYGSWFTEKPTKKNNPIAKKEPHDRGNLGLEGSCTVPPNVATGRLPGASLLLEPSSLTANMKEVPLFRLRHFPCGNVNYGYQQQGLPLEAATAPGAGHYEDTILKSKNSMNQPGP
T4 sequence (P32298 whole entry): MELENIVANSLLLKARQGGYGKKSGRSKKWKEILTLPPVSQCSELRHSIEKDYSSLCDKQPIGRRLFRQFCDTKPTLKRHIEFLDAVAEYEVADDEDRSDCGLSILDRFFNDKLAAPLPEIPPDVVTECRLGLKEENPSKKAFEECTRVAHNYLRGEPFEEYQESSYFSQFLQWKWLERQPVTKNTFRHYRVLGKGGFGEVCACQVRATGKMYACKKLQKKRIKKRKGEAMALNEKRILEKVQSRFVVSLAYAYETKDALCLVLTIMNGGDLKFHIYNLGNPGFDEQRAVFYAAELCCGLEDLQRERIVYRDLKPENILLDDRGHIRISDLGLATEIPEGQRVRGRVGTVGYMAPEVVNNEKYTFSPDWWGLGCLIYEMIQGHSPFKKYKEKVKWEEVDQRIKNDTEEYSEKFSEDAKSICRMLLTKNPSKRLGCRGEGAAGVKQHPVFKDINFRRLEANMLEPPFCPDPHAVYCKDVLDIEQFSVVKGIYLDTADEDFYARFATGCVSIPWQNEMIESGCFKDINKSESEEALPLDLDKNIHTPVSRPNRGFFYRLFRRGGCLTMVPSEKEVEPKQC

Take `Nc1cc(C(F)(F)F)c(-c2cc(N3CCOCC3)nc(N3CCOCC3)n2)cn1` [Buparlisib]: the remaining activity at 1 µM at panel of 442 kinases [1] came to 89%; at panel of 442 kinases [2], 100%; at panel of 442 kinases [3] it was 91%; on panel of 442 kinases [4], 100%; on panel of 442 kinases [5], 100%; on panel of 442 kinases [6], 100%. The remaining activity at 1 µM on panel of 442 kinases [7] was determined as 100%. The remaining activity at 10 µM at panel of 442 kinases [1] (setting [8]) stood at 100%; on panel of 442 kinases [2] (10 µM, read-out: STK16 (% of control at 10 µM)), 92%; on panel of 442 kinases [3] (10 µM, read-out: SgK110 (% of control at 10 µM)) it was 100%; at panel of 442 kinases [4] (setting [8]) it was 100%; at panel of 442 kinases [5] (setting [8]) it was 100%; on panel of 442 kinases [6] (setting [8]), 100%. Besides, the remaining activity at 10 µM at panel of 442 kinases [7] (setting [8]) was 100%.
Take `Cn1c(=O)n(-c2ccc(C(C)(C)C#N)cc2)c2c3cc(-c4cnc5ccccc5c4)ccc3ncc21` [Dactolisib, 2-methyl-2-[4-(3-methyl-2-oxo-8-quinolin-3-yl-2,3-dihydroimidazo[4,5-c]quinolin-1-yl)-phenyl] propionitrile]: the remaining activity at 1 µM at panel of 442 kinases [1] was found to be 90%; on panel of 442 kinases [2], 100%; on panel of 442 kinases [3], 100%; at panel of 442 kinases [4] it was 97%; on panel of 442 kinases [5] it was 95%; on panel of 442 kinases [6] it was 91%. Moreover, the remaining activity at 1 µM at panel of 442 kinases [7] amounted to 72%.
Consider `COc1ncc(-c2ccc3nccc(-c4ccnnc4)c3c2)cc1NS(=O)(=O)c1ccc(F)cc1F` [Omipalisib], for which the remaining activity at 1 µM at panel of 442 kinases [1] came to 96%; on panel of 442 kinases [2], 42%; at panel of 442 kinases [3] it was 100%; at panel of 442 kinases [4] it was 100%; on panel of 442 kinases [5] it was 84%; at panel of 442 kinases [6], 100%. Moreover, on panel of 442 kinases [7], the remaining activity at 1 µM was determined as 100%.
With `FC(F)c1nc2ccccc2n1-c1nc(N2CCOCC2)nc(N2CCOCC2)n1` [ZSTK474, 2-(difluoromethyl)-1-[4,6-di(4-morpholinyl)-1,3,5-triazin-2-yl]-1H-benzimidazole], the remaining activity at 1 µM was 100% on panel of 442 kinases [1]; 100% on panel of 442 kinases [2]; 100% at panel of 442 kinases [3]; 100% at panel of 442 kinases [4]; 100% on panel of 442 kinases [5]; 90% on panel of 442 kinases [6]. Moreover, the remaining activity at 1 µM at panel of 442 kinases [7] amounted to 93%.
